Test results published in PubChem BioAssay (NCI).
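How tested: cells in 96-well plates exposed to compound for 48 hours at five concentrations. The concentration for 50% growth inhibition is given as GI50. TGI: total growth inhibition.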

Legend:
Assay in all cases: NCI tumour cell line growth inhibition, 48 h
NCI-H522 lung = tested on: NCI-H522 lung
IGROV1 ovarian = tested on: IGROV1 ovarian
RXF 393 renal = tested on: RXF 393 renal
BT-549 breast = tested on: BT-549 breast
HCT-116 colon = tested on: HCT-116 colon
786-0 renal = tested on: 786-0 renal
HL-60(TB) leukemia = tested on: HL-60(TB) leukemia
HT29 colon = tested on: HT29 colon
MDA-MB-231 breast = tested on: MDA-MB-231 breast
K-562 leukemia = tested on: K-562 leukemia
HOP-62 NSCLC = tested on: HOP-62 NSCLC
NCI-H226 lung = tested on: NCI-H226 lung
A498 renal = tested on: A498 renal
HCC-2998 colon = tested on: HCC-2998 colon
M14 melanoma = tested on: M14 melanoma
UO-31 renal = tested on: UO-31 renal
SF-539 CNS = tested on: SF-539 CNS
U251 CNS = tested on: U251 CNS
CCRF-CEM leukemia = tested on: CCRF-CEM leukemia
SF-295 CNS = tested on: SF-295 CNS
MOLT-4 leukemia = tested on: MOLT-4 leukemia
OVCAR-8 ovarian = tested on: OVCAR-8 ovarian
HCT-15 colon = tested on: HCT-15 colon
RPMI-8226 leukemia = tested on: RPMI-8226 leukemia
UACC-257 melanoma = tested on: UACC-257 melanoma
SK-OV-3 ovarian = tested on: SK-OV-3 ovarian
NCI-H23 lung = tested on: NCI-H23 lung
TK-10 renal = tested on: TK-10 renal
T-47D breast = tested on: T-47D breast

N#C/C(=C\c1cn(Cc2ccccc2)c2ccccc12)C(=O)Nc1ncc(Cc2ccccc2Cl)s1
GI50 (NCI-H522 lung): 1.8 µM | TGI (NCI-H522 lung): 6.36 µM | GI50 (IGROV1 ovarian): 1.93 µM | TGI (IGROV1 ovarian): 5.57 µM | GI50 (RXF 393 renal): 2.27 µM | TGI (RXF 393 renal): 6.14 µM | GI50 (BT-549 breast): 2.94 µM | TGI (BT-549 breast): 11.6 µM | GI50 (HCT-116 colon): 1.27 µM | TGI (HCT-116 colon): 3.89 µM | GI50 (786-0 renal): 1.51 µM | TGI (786-0 renal): 3.11 µM | GI50 (HL-60(TB) leukemia): > 100 µM | TGI (HL-60(TB) leukemia): > 100 µM | GI50 (HT29 colon): 2.66 µM | TGI (HT29 colon): > 100 µM | GI50 (MDA-MB-231 breast): 1.93 µM | TGI (MDA-MB-231 breast): 4.79 µM | GI50 (K-562 leukemia): 3.03 µM | TGI (K-562 leukemia): > 100 µM | GI50 (HOP-62 NSCLC): 2.52 µM | TGI (HOP-62 NSCLC): 10.4 µM | GI50 (NCI-H226 lung): 1.7 µM | TGI (NCI-H226 lung): 5.67 µM | GI50 (A498 renal): 1.08 µM | TGI (A498 renal): 2.87 µM | GI50 (HCC-2998 colon): 3.23 µM | TGI (HCC-2998 colon): > 100 µM | GI50 (M14 melanoma): 2.52 µM | TGI (M14 melanoma): 10.4 µM | GI50 (UO-31 renal): 1.46 µM | TGI (UO-31 renal): 3.18 µM | GI50 (SF-539 CNS): 1.68 µM | TGI (SF-539 CNS): 3.42 µM | GI50 (U251 CNS): 1.36 µM | TGI (U251 CNS): 2.92 µM | GI50 (CCRF-CEM leukemia): 2.51 µM | TGI (CCRF-CEM leukemia): > 100 µM | GI50 (SF-295 CNS): 2.36 µM | TGI (SF-295 CNS): 6.87 µM | GI50 (MOLT-4 leukemia): 2.49 µM | TGI (MOLT-4 leukemia): > 100 µM | GI50 (OVCAR-8 ovarian): 1.35 µM | TGI (OVCAR-8 ovarian): 3.13 µM | GI50 (HCT-15 colon): 2.83 µM | TGI (HCT-15 colon): > 100 µM | GI50 (RPMI-8226 leukemia): 3.23 µM | TGI (RPMI-8226 leukemia): > 100 µM | GI50 (UACC-257 melanoma): 3.3 µM | TGI (UACC-257 melanoma): > 100 µM | GI50 (SK-OV-3 ovarian): 1.8 µM | TGI (SK-OV-3 ovarian): 4.66 µM | GI50 (NCI-H23 lung): 1.71 µM | TGI (NCI-H23 lung): 4.08 µM | GI50 (TK-10 renal): 1.93 µM | TGI (TK-10 renal): 4.2 µM | GI50 (T-47D breast): 1.69 µM | TGI (T-47D breast): 4.15 µM
